Laboratory results reported in US8592435B2, “Nitrogen-containing six-membered aromatic ring derivatives and pharmaceutical products containing the same” (Daiichi Sankyo Company, Limited, priority 2007, dated 2013).

How the values were obtained:
[1] = test system: microsphere (micro-embolism) model; assay: Test Example 6: rat microsphere (micro-embolism) model; format: in vivo, Crl:CD(SD) rats; settings: rats, oral 1.0 mg/kg once daily for 10 days (Compound 65 also 0.1 mg/kg); 2 weeks after surgery
Description: According to the method of Ichiro Date et al. [Journal of Neuroscience Research 78; 442-453 (2004)], 8-week-old male Crl:CD(SD) rats were used. Animals were anesthetized with halothane and midline incision was made. Right carotid artery was separated and a thread was looped around the common carotid artery and external carotid artery. The pterygopalatine artery was temporarily clipped with an aneurysm clip. The blood flow through the common carotid artery and external carotid artery was temporarily interrupted and 0.1 mL of a microsphere suspension composed of microspheres dispersed in a 30% sucrose solution (1800 microspheres/0.1 mL) was injected into the common carotid artery. After injection of the suspension, the puncture of the injection needle was filled with instant glue while the blood flow was interrupted. The blood flow was then restored and the surgical wound was sutured. Neurological symptoms were observed the day following the surgery. The animals were assigned to each treated group at random with respect to the measurements of neurological symptoms, the decrease in body weight from the previous day, and the body weight on that day.
The test compounds used were Example Compound 65, 108, 130, 135 and 137, each of which was administered at a dose of 1.0 mg/kg. Example Compound 65 was administered also at a dose of 0.1 mg/kg. Each compound was orally administered once daily for 10 days starting from the following day of the surgery. Coordinated motor functions were measured 5 times on an accelerated rota-rod (4 to 40 rpm/5 min) 2 weeks after the surgery.
Specifically, FIGS. 11 to 15 show the effect of different compounds 2 weeks after the microsphere injection (rota-rod test standard parameter). The figures show the results of rota-rod tests 2 weeks after the ischemic event in which each compound was orally administered at 1.0 mg/kg once daily for 10 days (Example Compound 65 was administered at 0.1 mg/kg or 1.0 mg/kg). What is shown in the figures is the total time of the 5 measurements on rota-rod as a standard parameter.
***: p<0.0001, Dunnett's multiple range test vs. Vehicle.

spinal cord neurons = assay: Test Example 3: ability to promote the neurite outgrowth of spinal cord neurons; format: cell-based, Wistar rats; settings: Compound Conc. = 0.1 μM; % of control, day 3
Method: According to the method of Martin G. Hanson Jr. [J. Neurosci., 1998 Sep. 15; 18(18): 7361-71], the spinal cord region was isolated from 15-day embryos of female Wistar rats and the cells were dispersed using the papain dissociation system. Neurons were collected using 6.8% Metrizamide density gradient and were suspended in 2% FBS+Leibovitz's −15 medium so that the density of the cells will be 2×10^3 cells/well/200 μL. 200 μL of the cell suspension was inoculated on a poly-D-lysine/laminin-coated 96 well plate and the plate was incubated in an incubator at 37° C. Test compounds were added 1 hour after seeding of cells.
On day 3 of the incubation period, neurons were stained with Calcein-AM and the lengths of neurites were determined using IN Cell Analyzer (GE Healthcare Bioscience).
The ability (%) of each test compound to promote neurite outgrowth was calculated from the following equation: The ability to promote neurite outgrowth (%)=[(measurement with a compound of interest)/(measurement of control)]×100
Example Compounds 65, 71, 74, 92, 130 and 135 were used as test compounds and were each added at a concentration of 0.1 μM.
The results are shown in Table 27. bFGF gives a measurement of about 130 in this test.

chemokine receptor CCR3 = target: T1, chemokine receptor CCR3 (Homo sapiens, UniProt P51677); assay: Affinity to chemokine receptor CCR3; format: binding; settings: at a concentration of 10 μM
T1 sequence (P51677 1-355): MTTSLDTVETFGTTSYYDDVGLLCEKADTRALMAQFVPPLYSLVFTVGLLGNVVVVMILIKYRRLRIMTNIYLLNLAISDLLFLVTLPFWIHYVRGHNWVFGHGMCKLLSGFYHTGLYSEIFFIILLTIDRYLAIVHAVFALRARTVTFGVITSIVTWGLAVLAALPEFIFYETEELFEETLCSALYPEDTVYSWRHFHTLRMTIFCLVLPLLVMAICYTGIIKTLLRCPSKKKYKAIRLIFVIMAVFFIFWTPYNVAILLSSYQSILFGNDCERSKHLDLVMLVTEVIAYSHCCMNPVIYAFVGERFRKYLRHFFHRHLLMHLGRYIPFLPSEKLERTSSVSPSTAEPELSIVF
Description: Although the compounds of the present invention are novel compounds, compounds having a partly similar skeleton are described, for example, in Published Japanese Translation of PCT International Application No. 2003-507456, WO 01/79170 and WO 00/23076.

[2] = test system: critical limb ischemia model (left femoral artery excised); assay: Test Example 4: lower limb ischemia (critical limb ischemia) model in mice; format: in vivo, Balb/c mice; settings: oral once daily 0.1 or 1.0 mg/kg for 10 days from femoral artery excision, vs Vehicle
Method: According to the method of Ichiro Masaki [Circ Res. 90; 966-973 (2002)], the left femoral artery of Balb/c mice was excised to establish a model of critical limb ischemia (n=29 to 30).
Test compounds used were Example Compounds 65, 92, 114, 130, 135 and 136, each of which was orally administered once daily at a dose of 0.1 mg/kg or 1.0 mg/kg for 10 days starting from the day of femoral artery excision.
The results are shown in FIGS. 1 to 6 in which FIGS. 1, 2, 3, 4, 5 and 6 show the results of Example Compounds 65, 92, 114, 130, 135 and 136, respectively.
In the figures, a thick solid line indicates a Vehicle group, a thin dotted line indicates a group administered 0.1 mg/kg/day of each compound, and a thin solid line indicates a group administered 1.0 mg/kg/day of each compound.
*: P<0.05, **: P<0.01, ***: P<0.001 vs Vehicle by Wilcoxon's test.

[3] = test system: mixture of human vascular endothelial cells and fibroblasts; assay: Test Example 2: ability to promote angiogenesis (angiogenesis test kit KZ-1000); format: cell-based; settings: Homo sapiens, 216 h, lumen length, % of control, day 9, read-out: Promotion of angiogenesis (%); for activity at 0.3 µM: Compound Conc. = 0.3 μM
Method: Using an angiogenesis test kit containing a mixture of human vascular endothelial cells and fibroblasts [KZ-1000; Kurabo], the ability of test compounds to promote angiogenesis was evaluated. Each test compound was added on days 1, 4, and 7 of the incubation period. On day 9, cells were immunostained with CD31 and photographed. Control cells were cultured under the same conditions, only without the addition of a test compound, and photographed.
The lumen length of the blood vessel was quantified from the obtained images using an angiogenesis-quantification software. The ability (%) of each test compound to promote angiogenesis was calculated from the following equation: The ability to promote angiogenesis (%)=[(measurement with a compound of interest)/(measurement of control)]×100
Example Compounds shown in Table 26 were used as test compounds.
Since bFGF gives a measurement of about 120 in this test, 120 is used as the threshold to determine whether a given compound has the ability to promote angiogenesis.

hippocampal neurons = assay: Test Example 1: ability to promote axonal outgrowth; format: cell-based, Wistar rats; settings: Hippocampal neuron, 216 h; Compound Conc. = 3 μM; % of control; rat hippocampal neurons, day 9; read-out: Promotion of axonal outgrowth (%)
Method: According to the method of M. P. Mattson [M. P. Mattson, Brain Res. Rev., 13, 179, (1988)], the hippocampal region was isolated from 18-day embryos of female Wistar rats and the neurons were dispersed using the papain dissociation system. Hippocampal neuron were suspended in 5% Nu-serum+B27 supplement+Neurobasal medium at 5×10^4 cells/well/2 mL. 2 mL of the cell suspension were inoculated on a poly-D-lysine-coated 36φ dish and the neuron were incubated at 37° C. in a 5% CO2 incubator.
On day 3 of the incubation period, 1 mL of the culture medium was replaced with 1 mL of 5% Nu-serum+B27 supplement+Neurobasal medium containing 2 mM AraC. Each test compound was added to the culture on day 3 and day 7 of the incubation period. On day 9, cells were fixed in a 4% paraformaldehyde solution. The nerve axons of the fixed cells were stained with the Rabbit anti-growth-associated protein-43 polyclonal antibody and the stained cells were quantified using Kurabo neuron outgrowth-quantication software.
The ability (%) of each test compound to promote axonal outgrowth was calculated from the following equation: The ability to promote axonal outgrowth (%)=[(measurement with a compound of interest)/(measurement of control)]×100
Example Compounds shown in Table 25 were used as test compounds and were each added at concentrations of 3 μM and 0.3 μM.
Since bFGF gives a measurement of about 120 in this test, 120 is used as the threshold to determine whether a given compound has the ability to promote axonal outgrowth

Structure (SMILES) | coordinated motor functions, total time of 5 measurements on rota-rod [1] | Promotion of spinal cord neurite outgrowth (%) (spinal cord neurons) | affinity to chemokine receptor CCR3 (chemokine receptor CCR3) [%] | survival rate of lower limb [2] | activity at 0.3 µM [3] [%] | activity at 3 µM (hippocampal neurons) [%] | activity at 3 µM ([3]; Compound Conc. = 3 μM) [%]
CN(C(=O)COc1ccc(Cl)nn1)C1CCN(Cc2ccccc2)CC1 [Compound 137, N-(1-benzylpiperidine-4-yl)-2-(6-chloropyridazine-3-yloxy)-N-methylacetamide] | highly effective in ameliorating ischemic cerebral infarction | – | – | – | – | – | –
CNc1nccnc1OCC(=O)N(C)C1CCN(Cc2ccccc2)CC1.Cl [Compound 130, N-(1-benzylpiperidine-4-yl)-N-methyl-2-(3-(methylamino)pyrazine-2-yloxy)acetamide hydrochloride] | highly effective in ameliorating ischemic cerebral infarction | 128 | 3.5 | increased survival rate | 118 | 143 | –
Cc1cnc(N)nc1NCC(=O)N(C)C1CCN(CC2CC2)CC1 [Compound 108, 2-(2-amino-5-methylpyrimidine-4-ylamino)-N-(1-(cyclopropylmethyl)piperidine-4-yl)-N-methylacetamide] | highly effective in ameliorating ischemic cerebral infarction | – | – | – | 114 | 122 | –
CN(C(=O)COc1ccc(Cl)nn1)C1CCN(C(=O)C2CC2)CC1 [Compound 135, 2-(6-chloropyridazine-3-yloxy)-N-(1-(cyclopropanecarbonyl)piperidine-4-yl)-N-methylacetamide] | highly effective in ameliorating ischemic cerebral infarction | 121 | 22 | increased survival rate | – | 131 | 140
